# Laboratory results from patent US8329861B2, “Protein KTPAF50” (Two To Biotech Ltd., priority 2007, dated 2012).
# What was measured:
# [1] = system: human peripheral white blood cells (pWBC); assay: Cytokine secretion from PHA-cultured human peripheral white blood cells treated with KTPAF50 (ELISA); assay type: cell-based; settings: pWBC in PHA containing medium, treated for 3 days
# Protocol: In order to determine the potential effect of KTPAF50 on various diseases, KTPAF50 was incubated with human peripheral white blood cells (pWBC), and the amounts of a panel of cytokines were measured.
# Total human white blood cells were cultured in PHA containing medium (Biological Industries INC—catalogue number—01-201-1) (2 million cells/well in 2 ml medium). The control cells were not treated.
# At day 3 medium was harvested and subjected to ELISA analysis, using e-Bioscience kits for human IL-17 (catalogue number: 88-7176), human INF-γ (catalogue number: 88-7316) and human TNF-α (catalogue number: 88-7346. The results are summarized in FIGS. 1, 2 and 3.
# [2] = system: U937 acute myeloid leukemia cells; assay: Viable cell detection with Resazurin, U937 cells; assay type: cell-based; settings: incubated one day, FIG. 4
# Protocol: (§1) U937 acute myeloid leukemia cells and PC3 prostate cancer cells were each grown in 10% FCS+RPMI medium and quadruplicates were inoculated into a 96 well plate, 20,000 cells/well.
# (§2) KTPAF50 was incubated with the cells for one day, and viable cells were detected using Resazurin (R&D System) and a spectrophotometer.
# In order to determine whether the entire KTPAF50 peptide is required for activity, the experiment described in Example III above, using U937 cells, was repeated with the complete KTPAF50 peptide and fragments thereof.
# [3] = system: PC3 prostate cancer cells; assay: Viable cell detection with Resazurin, PC3 cells; assay type: cell-based; settings: incubated one day, FIG. 4
# Protocol: as §1, §2
# U937 cells = assay: U937 tumor growth in athymic nude mice; assay type: in vivo; settings: nude mice inoculated s.c. with 15×10^6 U937 cells, 25 ug/mouse injected from day 9, versus saline control; FIG. 6
# Protocol: 14 athymic nude female 8-9 week-old mice were purchased from Harlan Biotech, Israel. The mice were inoculated s.c. with 15×10^6 U937 cells. Tumors began to grow, and at day 9 the mice were divided into 2 groups: • A control group which was injected with saline. • A treated group which was injected with KTPAF50 (25 ug/mouse)
# At day 20, 4 mice from the control group were sacrificed due to ethical reasons because they had huge tumors.
substance,measurement,setting,value
"KTPAF50: KTPAF50 peptide devoid of the signal sequence, 50 amino acids: LRRREQAERGSRRCAIAGEERAMLSPSPLPETPFSPEKGAAFSPIYPRRK; chemically synthesized by Anaspec (listed as Homo sapiens)",secretion of IL-17,[1]; FIG. 1,stimulated the pWBC to secrete all three cytokines measured
same,secretion of INF-γ,[1]; FIG. 2,stimulated the pWBC to secrete all three cytokines measured
same,secretion of TNF-α,[1]; FIG. 3,stimulated the pWBC to secrete all three cytokines measured
same,viable cells (normalized to the control amount),[2],significant decrease in viable cells
same,viable cells (normalized to the control amount),[3],significant decrease in viable cells
same,U937 tumor volume / tumor growth,U937 cells,totally prevented tumor growth
